Counter-ions that a name gives are not always drawn. Like-named read-outs stand apart in the source and are kept apart here.
Tests used:
mice [1] = experiment: tail-flick test in mice; type: in vivo, mouse (male Charles River, Swiss Strain); conditions: subcutaneous, calculated as the free base, 30 min pretreatment; for ED50: Mus musculus, sc, 0.5 h; for MOUSE TAIL-FLICK ED50: 30 min
Protocol: (B) Tail-flick test in mice
The methodology employed is based on that described by D'Amour and Smith, J. Pharmacol. Exp. Ther. 72, 74/1941.
Male Charles River mice (Swiss Strain), 22-34g body weight were used. Animals were allowed food and water ad libitum and were randomized into groups of 10 prior to experimentation.
Test compounds were dissolved in either distilled water or distilled water plus 0.1 M AMS and administered by the subcutaneous route in a final volume of 10 ml/Kg. Control animals received 10 ml/kg of the appropriate vehicle alone. Following a pretreatment period of 30 min., the mice were again placed under the heat source and the reaction tine re-determined.
Percentage quantal protection was determined as the number of mice in which the reaction time was doubled compared to pretreatment values, expressed as a percentage of the total number of mice in the group.

mice [2] = experiment: p-phenylquinone-induced abdominal writhing test in mice; type: in vivo, mouse (male Charles River, Swiss Strain); conditions: Mus musculus, sc, 20 min; subcutaneous; calculated as the free base; 20 min pretreatment, p-phenylquinone 2 mg/Kg i.p.
Protocol: (A) P-phenylquinone-induced abdominal writhing test in mice
The methodology employed is based on that described by Sigmund et al, Proc. Soc. Exptl. Biol. 95, 729/1957, modified by Milne and Twomey, Agents and Actions, 10, 31/1980.
Male Charles River mice (Swiss Strain), 25-36g body weight, were used. Animals were allowed food and water ad libitum and were randomized into groups of 10 prior to experimentation. Test compounds were dissolved in either distilled water or distilled water plus 0.1 M AMS, and administered by the subcutaneous route in a final volume of 10 ml/Kg. Control animals received 10 ml/Kg of the appropriate vehicle alone. Following a pretreatment period of 20 min., mice were injected intraperitoneally with p-phenylquinone, 2 mg/Kg at 37° C. in a final volume of […]. […] During this period the number of abdominal writhing responses per animal were recorded where writhing consists of an intermittent contraction of the abdomen associated with hind leg extension.
The degree of antinociceptive protection afforded by the test compound was determined as the mean number of writhing responses observed in the treated group (T) expressed as a percentage of the mean number of writhing responses in the control group (C) according to the following formula:
[1-(T/C]×100%=% graded protection

MU opiate receptor = molecular target: T1, MU opiate receptor (Cavia porcellus, UniProt A0ACM8Q262); experiment: opiate receptors binding, MU (3H-DAGO, guinea pig brain homogenate)
T1 construct: 3H-DAGO displacement
T1 sequence (A0ACM8Q262 1-400): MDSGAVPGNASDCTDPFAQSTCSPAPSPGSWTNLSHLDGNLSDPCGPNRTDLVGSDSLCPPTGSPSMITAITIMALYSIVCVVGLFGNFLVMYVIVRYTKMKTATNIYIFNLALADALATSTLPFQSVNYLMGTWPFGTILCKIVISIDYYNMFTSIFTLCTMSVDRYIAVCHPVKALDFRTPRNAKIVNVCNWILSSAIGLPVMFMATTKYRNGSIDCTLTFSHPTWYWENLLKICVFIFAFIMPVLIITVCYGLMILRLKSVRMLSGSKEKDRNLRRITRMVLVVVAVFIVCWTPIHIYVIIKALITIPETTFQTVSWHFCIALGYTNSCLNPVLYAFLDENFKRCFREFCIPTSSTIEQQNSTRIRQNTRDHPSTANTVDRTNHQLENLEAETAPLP
Protocol: Radio receptor binding to μ and K sites is performed on fresh guinea pig brain homogenate prepared according to Kosterlitz.
(§1) Whole brain without cerebellum is homogenized in 50 mM, Tris-buffer (pH 7.4 at 0° C.) and centrifuged at 49,000×g×10 min.
The pellet is then resuspended in the same buffer, incubated at 37° C. for 45 min. and centrifuged again. 1.9ml of the final homogenate (1:100 in Tris-pH 7.4, 0° C.) is used for the binding assay.
The filters are then dryed, solubilized in Filtercount and the radioactivity monitored. Non specific binding
is determined in the presence of 10-6M Naloxone.

KAPPA opiate receptor = molecular target: T2, KAPPA opiate receptor (Cavia porcellus, UniProt P41144); experiment: opiate receptors binding, KAPPA (3H-Ethyl Ketocyclazocine, guinea pig brain homogenate); conditions: fresh guinea pig brain homogenate, 3H-Ethyl Ketocyclazocine with 100nM DAGO and 100nM DADLE, 25° C., 40 min; read-out: OPIATE RECEPTORS BINDING KAPPA Ki
T2 construct: fresh guinea pig brain homogenate; from tissue; host or cells: guinea pig whole brain without cerebellum, fresh homogenate
T2 sequence (P41144 whole entry): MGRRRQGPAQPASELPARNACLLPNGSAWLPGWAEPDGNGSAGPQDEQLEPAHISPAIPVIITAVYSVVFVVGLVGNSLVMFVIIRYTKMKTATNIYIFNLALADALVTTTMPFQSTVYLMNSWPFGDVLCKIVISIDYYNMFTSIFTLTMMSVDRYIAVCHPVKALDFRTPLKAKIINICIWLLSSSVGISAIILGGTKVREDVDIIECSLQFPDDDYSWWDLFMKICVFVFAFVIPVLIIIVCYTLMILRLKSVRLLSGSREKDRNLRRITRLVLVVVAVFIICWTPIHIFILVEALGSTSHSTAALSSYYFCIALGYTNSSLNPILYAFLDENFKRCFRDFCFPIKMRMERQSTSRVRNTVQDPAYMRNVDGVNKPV
Protocol: Radio receptor binding to μ and K sites is performed on fresh guinea pig brain homogenate prepared according to Kosterlitz. (1981).
as §1
The pellet is then resuspended in the same buffer, incubated at 37° C. for 45 min. and centrifuged again. 1.9ml of the final homogenate (1:100 in Tris-pH 7.4, 0° C.) is used for the binding assay. Binding to […] sites (Magnan J., 1982) 1 3H [D-Ala2, MePhe4, Gly-o15]Enkephalin (3H-DAGO), an
is determined in the presence of 10-6M Naloxone. 1 Binding to K sites (Magnan J., 1982)
The binding to the K-sites is performed using 3H-Ethyl Ketocyclazocine, a non-selective benzomorphan compound which binds to μ, δ and K-sites, in the presence of 100nM of unlabelled DAGO and 100nM of the enkephalin analogue [DAla^2 -DLeu^5 ]Enkephalin (DADLE), to prevent μ and δ binding respectively.
Final homogenate with solutions of the cold ligand and of the labelled ligand is incubated for 40 min. at 25° C., filtered through Whatman GF/C glass filter discs and washed.
The radioactivity bound to the filters is counted by liquid scintillation spectrophotometry.
The non-specific binding is determined in the presence of 500nM of the benzomorphan non-selective compound Mr 2266.
The equilibrium dissociation constant (KD) and the maximum binding capacity (Bmax) are determined from the analysis of saturation curves, while the inhibition constant (Ki) is determined from the analysis of competition experiments (Hill 1910; Scatchard 1949; Cheng and Prusoff 1973; Gillan et al. 1980).

[3] = read-out: OPIATE RECEPTORS BINDING MU Ki, fresh guinea pig brain homogenate, 25° C., 40 min
[4] = fresh guinea pig brain homogenate, 25° C., 40 min, read-out: OPIATE RECEPTORS BINDING MU Ki

COc1ccc2c(c1OC)CCN(C(=O)Cc1ccc(Cl)c(Cl)c1)C2CN1CCCC1 (stereo not shown) [Example 39, 1-(pyrrolidin-1-yl)methyl-2-(3,4-dichlorophenyl)acetyl-5,6-dimethoxy-1,2,3,4-tetrahydroisoquinoline hydrochloride]
ED50 (mice [1]): > 1 mg/kg

O=C(Cc1ccc(Cl)c(Cl)c1)N1CC(c2ccccc2)c2ccccc2C1CN1CCCC1 (single isomer, unassigned; diastereoisomer b) [Example 50, 1-(pyrrolidin-1-yl)methyl-2-(3,4-dichlorophenyl)acetyl-4-phenyl-1,2,3,4-tetrahydroisoquinoline hydrochloride monohydrate diastereoisomer B]
ED50 (mice [1]): 20 mg/kg

O=C(Cc1ccc(Cl)c(Cl)c1)N1CCc2c(O)cccc2C1CN1CCCCC1 (stereo not shown) [Example 38, 1-(piperidin-1-yl)methyl-2-(3,4-dichlorophenyl)acetyl-5-hydroxy-1,2,3,4-tetrahydroisoquinoline hydrochloride]
ED50 (mice [2]): 0.004 mg/kg
ED50 (mice [1]): 0.01 mg/kg
Ki (MU opiate receptor; [3]): 11.4 nM

O=C(Cc1ccc(Cl)c(Cl)c1)N1CCc2c(O)cccc2C1CN1CCCC1 (single isomer, unassigned; (-)) [Example 54, (-)-1-(pyrrolidin-1-yl)methyl-2-(3,4-dichlorophenyl)acetyl-5-hydroxy-1,2,3,4-tetrahydroisoquinoline hydrochloride]
ED50 (mice [2]): 0.0022 mg/kg
ED50 (mice [1]): 0.006 mg/kg

CN(C)CC1c2cccc(O)c2CCN1C(=O)Cc1ccc(Cl)c(Cl)c1 (stereo not shown) [Example 10, 1-dimethylaminomethyl-2-(3,4-dichlorophenyl) acetyl-5-hydroxy-1,2,3,4-tetrahydroisoquinoline.]
ED50 (mice [1]): 0.088 mg/kg
Ki (KAPPA opiate receptor): 0.42 nM
Ki (MU opiate receptor; [3]): 3.67 nM

CC1c2ccccc2C(CN2CCCC2)N(C(=O)Cc2ccc(Cl)c(Cl)c2)C1C (single isomer, unassigned; diastereoisomer c) [Example 47, 1-(pyrrolidin-1-yl)methyl-2-(3,4-dichlorophenyl)acetyl-3,4-dimethyl-1,2,3,4-tetrahydroisoquinoline hydrochloride diastereoisomer C]
MOUSE TAIL-FLICK ED50 (mice [1]): 8.9 mg/kg

O=C(Cc1ccc(C(F)(F)F)cc1)N1CCc2c(O)cccc2C1CN1CCCC1 (stereo not shown) [Example 34, 1-(pyrrolidin-1-yl)methyl-2-(4-trifluoromethylphenyl)acetyl5-hydroxy-1,2,3,4-tetrahydroisoquinoline hydrochloride hemihydrate]
ED50 (mice [2]): 0.0023 mg/kg
ED50 (mice [1]): 0.011 mg/kg
Ki (MU opiate receptor; [3]): 0.59 nM

CSc1cccc2c1CCN(C(=O)Cc1ccc(Cl)c(Cl)c1)C2CN1CCCC1 (stereo not shown) [Example 32, 1-(pyrrolidin-1-yl)methyl-2-(3,4-dichlorophenyl)acetyl-5-methylthio-1,2,3,4-tetrahydroisoquinoline hydrochloride]
ED50 (mice [2]): 0.202 mg/kg
ED50 (mice [1]): 0.365 mg/kg
Ki (MU opiate receptor; [4]): 442 nM

O=C(Cc1ccc(Cl)c(Cl)c1)N1CCc2c(ccc(O)c2O)C1CN1CCCC1 (stereo not shown) [Example 40, 1-(pyrrolidin-1-yl)methyl-2-(3,4-dichlorophenyl)acetyl-5,6-dihydroxy-1,2,3,4-tetrahydroisoquinoline hydrochloride]
ED50 (mice [2]): 0.429 mg/kg
ED50 (mice [1]): 0.461 mg/kg
Ki (MU opiate receptor; [3]): 49.2 nM

CC1c2ccccc2C(CN2CCCC2)N(C(=O)Cc2ccc(Cl)c(Cl)c2)C1C (single isomer, unassigned; diastereoisomer b) [Example 46, 1-(pyrrolidin-1-yl)methyl-2-(3,4-dichlorophenyl)acetyl-3,4-dimethyl-1,2,3,4-tetrahydroisoquinoline diastereoisomer B]
ED50 (mice [2]): 0.011 mg/kg
MOUSE TAIL-FLICK ED50 (mice [1]): 0.048 mg/kg

COc1cccc2c1CCN(C(=O)Cc1ccc(C(F)(F)F)cc1)C2CN1CCCC1 (stereo not shown) [Example 33, 1-(pyrrolidin-1-yl)methyl-2-(4-trifluoromethylphenyl)acetyl5-methoxy-1,2,3,4-tetrahydroisoquinoline hydrochloride]
ED50 (mice [2]): 0.06 mg/kg
ED50 (mice [1]): 0.306 mg/kg
Ki (MU opiate receptor; [4]): 142 nM

O=C(Cc1ccc(C(F)(F)F)cc1)N1CCc2c(O)cccc2C1CN1CCCCC1 (stereo not shown) [Example 37, 1-(piperidin-1-yl)methyl-2-(4-trifluoromethylphenyl)acetyl5-hydroxy-1,2,3,4-tetrahydroisoquinoline hydrochloride]
ED50 (mice [2]): 0.0013 mg/kg
ED50 (mice [1]): 0.007 mg/kg
Ki (MU opiate receptor; [3]): 5.38 nM

COc1cccc2c1CCN(C(=O)Cc1ccc(C(F)(F)F)cc1)C2CN1CCCCC1 (stereo not shown) [Example 35, 1-(piperidin-1-yl)methyl-2-(4-trifluoromethylphenyl)acetyl5-methoxy-1,2,3,4-tetrahydroisoquinoline hydrochloride]
ED50 (mice [2]): 0.204 mg/kg
ED50 (mice [1]): 0.689 mg/kg
Ki (MU opiate receptor; [4]): ~1000 nM

CC(=O)Oc1cccc2c1CCN(C(=O)Cc1ccc(Cl)c(Cl)c1)C2CN1CCCC1 (stereo not shown) [Example 52, 1-(pyrrolidin-1-yl)methyl-2-(3,4-dichlorophenyl)acetyl-5-acetoxy-1,2,3,4-tetrahydroisoquinoline hydrochloride]
ED50 (mice [2]): 0.005 mg/kg
ED50 (mice [1]): 0.024 mg/kg

C[C@H]1Cc2ccccc2[C@H](CN2CCCC2)N1C(=O)Cc1ccc(Cl)c(Cl)c1 (relative stereo) [Example 2, 1-(pyrrolidin-1-yl)methyl-2-(3,4-dichlorophenyl)acetyl-3-methyl-1,2,3,4-tetrahydroisoquinoline hydrochloride hemihydrate acetone. Diastereoisomer TRANS]
ED50 (mice [1]): > 1 mg/kg
Ki (KAPPA opiate receptor): 1 to 50 nM

CC1c2ccccc2C(CN2CCCCC2)N(C(=O)Cc2ccc(Cl)c(Cl)c2)C1C (single isomer, unassigned; diastereoisomer b) [Example 49, 1-(piperidin-1-yl)methyl-2-(3,4-dichlorophenyl)acetyl-3,4-dimethyl-1,2,3,4-tetrahydroisoquinoline diastereoisomer B.]
ED50 (mice [2]): 0.038 mg/kg
ED50 (mice [1]): 0.077 mg/kg

COc1cccc2c1CCN(C(=O)Cc1ccc(Cl)c(Cl)c1)C2CN1CCCCC1 (stereo not shown) [Example 36, 1-(piperidin-1-yl)methyl-2-(3,4-dichlorophenyl)acetyl-5-methoxy-1,2,3,4-tetrahydroisoquinoline hydrochloride]
ED50 (mice [2]): 0.163 mg/kg
ED50 (mice [1]): 0.924 mg/kg
Ki (MU opiate receptor; [4]): ~1000 nM

CC1CN(C(=O)Cc2ccc(Cl)c(Cl)c2)C(CN2CCCC2)c2ccccc21 (single isomer, unassigned) [Example 44, (-)-1-(pyrrolidin-1-yl)methyl-2-(3,4-dichlorophenyl)acetyl-4-methyl-1,2,3,4-tetrahydroisoquinoline D(-) tartrate]
ED50 (mice [2]): 0.013 mg/kg
ED50 (mice [1]): 0.025 mg/kg
Ki (MU opiate receptor; [3]): 56.5 nM

From patent publication US4954509A, “Isoquinoline derivatives and their use as analgesics” (Dr. Lo. Zambeletti S.p.A., priority 1988, dated 1990)
